Assay results: ChEMBL document CHEMBL5726194, “Benzenesulfonamide compounds and their use as therapeutic agents” (2017)

Assay: Electrophysiological Assay : The following patch voltage clamp electrophysiology studies were performed on representative compounds of the invention using human embryonic kidney cells (HEK), permanently transfected with an expression vector containing the full-length cDNA coding for the desired human sodium channel α-subunit, grown in culture media containing 10% FBS, 1% PSG, and 0.5 mg/mL G418 at 37° C. with 5% CO2. […] Nav1.7 and Nav1.5 cDNAs (NM_002977 and AC137587; SCN5A, respectively) were stably expressed in HEK-293 cells. The β1 subunit was coexpressed only in the Nav1.7 cell line.
Assay type: cell-based

## O=S(=O)(Nc1ncns1)c1cc(F)c(OC[C@@H]2CNCC[C@H]2c2ccc(F)c(C(F)(F)F)c2)cc1F (relative stereo)
  IC50: 71 nM
